Source: patent publication US20230085307A1, “PYRIDAZINONE COMPOUND AND HERBICIDE” (NISSAN CHEMICAL CORPORATION, priority 2019, published 2023)

Assays:
Italian ryegrass [1] = assay: Test Example 4: herbicidal effect by soil treatment (Table 19, symbol K); assay type: in vivo, Italian ryegrass (Lolium multiflorum); conditions: amount of applied herbicide 320 g/ha
Summary of the method: (§1)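 Herbicidal effect was rated 3 weeks after treatment, using the scoring criteria of an earlier test. The compound, formulated as an emulsion and diluted in water to a set herbicide amount, had been sprayed uniformly on soil over freshly sown seeds. Growth took place in a greenhouse at 25° C. to 30° C.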

Japanese bulrush [2] = assay: Test Example 2: herbicidal activity, application during weed generation under submerged conditions (Table 17, symbol B); assay type: in vivo, Japanese bulrush (Schoenoplectus juncoides); conditions: AAH 320 g/ha; application during weed generation, submerged conditions
Summary of the method: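 In this pot test, flooded alluvial soil (water depth 4 cm) holds all three species sown as a mixture. Once seedlings have one to two leaves, the compound's emulsion, thinned with water to the intended dose, is poured on the water; grading follows after three weeks on the earlier criteria.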

Japanese bulrush [3] = assay: Test Example 1: herbicidal activity, application before weed generation under submerged conditions (Table 16, symbol B); assay type: in vivo, Japanese bulrush (Schoenoplectus juncoides); conditions: amount of applied herbicide 320 g/ha
Summary of the method: (§2)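 Submerged Wagner pots (alluvial soil, 4 cm water) sown with weed seeds and planted with 2.5-leaf rice seedlings; emulsifiable concentrate diluted in water applied to water surface on sowing day. Held in greenhouse at 25-30 °C; injury scored 0-5 by herbicidal rate after three weeks.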

barnyard grass = assay: Test Example 4: herbicidal effect by soil treatment (Table 19, symbol H); assay type: in vivo, barnyard grass (Echinochloa crus-galli); conditions: amount of applied herbicide 320 g/ha
Summary of the method: as §1

southern crabgrass [4] = assay: Test Example 5: herbicidal effect by foliage application, plastic box (Table 20, symbol F); assay type: in vivo, southern crabgrass (Digitaria ciliaris); conditions: foliage application, 320 g/ha, three weeks after application
Summary of the method: (§3)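 Foliar spray test: emulsion formulation diluted in water to a set application rate, sprayed onto 14-day-old plants raised in diluvial soil at 25° C to 30° C under glass. Both herbicidal effect and crop effect rated visually three weeks later.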

lambsquarters = assay: Test Example 4: herbicidal effect by soil treatment (Table 19, symbol O); assay type: in vivo, lambsquarters (Chenopodium album); conditions: amount of applied herbicide 320 g/ha
Summary of the method: as §1

blackgrass [5] = assay: Test Example 4: herbicidal effect by soil treatment (Table 19, symbol J); assay type: in vivo, blackgrass (Alopecurus myosuroides); conditions: amount of applied herbicide 320 g/ha
Summary of the method: as §1

Italian ryegrass [6] = assay: Test Example 5: herbicidal effect by foliage application, plastic box (Table 20, symbol K); assay type: in vivo, Italian ryegrass (Lolium multiflorum); conditions: foliage application, 320 g/ha, three weeks after application
Summary of the method: as §3

persian speedwell [7] = assay: Test Example 4: herbicidal effect by soil treatment (Table 19, symbol R); assay type: in vivo, Persian speedwell (Veronica persica); conditions: amount of applied herbicide 320 g/ha
Summary of the method: as §1

southern crabgrass [8] = assay: Test Example 4: herbicidal effect by soil treatment (Table 19, symbol F); assay type: in vivo, southern crabgrass (Digitaria ciliaris); conditions: amount of applied herbicide 320 g/ha
Summary of the method: as §1

oval-leafed pondweed = assay: Test Example 1: herbicidal activity, application before weed generation under submerged conditions (Table 16, symbol C); assay type: in vivo, oval-leafed pondweed (Monochoria vaginalis); conditions: amount of applied herbicide 320 g/ha
Summary of the method: as §2

rice flat sedge = assay: Test Example 3: herbicidal effect by foliage application, Wagner pot (Table 18, symbol E); assay type: in vivo, rice flat sedge (Cyperus iria); conditions: for herbicidal effect on rice flat sedge (E): 320 g/ha
Summary of the method: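 Plants were sown in alluvial soil held under 0.1–0.5 cm standing water and grown 14 days in a greenhouse at 25–30 °C. An emulsifiable formulation, water-diluted to the set dose, was then sprayed onto the foliage, and effects were scored three weeks later using previously defined criteria.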

persian speedwell [9] = assay: Test Example 5: herbicidal effect by foliage application, plastic box (Table 20, symbol R); assay type: in vivo, Persian speedwell (Veronica persica); conditions: foliage application, 320 g/ha, three weeks after application
Summary of the method: as §3

wild oat = assay: Test Example 4: herbicidal effect by soil treatment (Table 19, symbol I); assay type: in vivo, wild oat (Avena fatua); conditions: amount of applied herbicide 320 g/ha
Summary of the method: as §1

blackgrass [10] = assay: Test Example 5: herbicidal effect by foliage application, plastic box (Table 20, symbol J); assay type: in vivo, blackgrass (Alopecurus myosuroides); conditions: foliage application, 320 g/ha, three weeks after application
Summary of the method: as §3

chickweed = assay: Test Example 4: herbicidal effect by soil treatment (Table 19, symbol P); assay type: in vivo, common chickweed (Stellaria media); conditions: amount of applied herbicide 320 g/ha
Summary of the method: as §1

SMILES | K: Italian ryegrass, herbicidal effect grade (Italian ryegrass [1]) | herbicidal effect rating, B: Japanese bulrush (Japanese bulrush [2]) | Herbicidal effect, B: Japanese bulrush (Japanese bulrush [3]) | H: barnyard grass, herbicidal effect grade (barnyard grass) | herbicidal effect on southern crabgrass (F) (southern crabgrass [4]) | O: lambsquarters, herbicidal effect grade (lambsquarters) | J: blackgrass, herbicidal effect grade (blackgrass [5]) | herbicidal effect on Italian ryegrass (K) (Italian ryegrass [6]) | R: persian speedwell, herbicidal effect grade (persian speedwell [7]) | F: southern crabgrass, herbicidal effect grade (southern crabgrass [8]) | Herbicidal effect, C: oval-leafed pondweed (oval-leafed pondweed) | herbicidal effect on rice flat sedge (E) (rice flat sedge) | herbicidal effect on persian speedwell (R) (persian speedwell [9]) | I: wild oat, herbicidal effect grade (wild oat) | herbicidal effect on blackgrass (J) (blackgrass [10]) | P: chickweed, herbicidal effect grade (chickweed) | Herbicidal effect on E (rice flat sedge), foliage application (rice flat sedge; amount of applied herbicide 320 g/ha)
COc1ccccc1-c1sc2cc(C)c(C)cc2c1-c1c(O)c(C)nn(C)c1=O [5-090] | 5 (Herbicidal rate of 90% or more (almost completely withered)) | 2 (Herbicidal rate of 20% or more and less than 40%) | 3 (Herbicidal rate of 40% or more and less than 70%) | 0 (Herbicidal rate of 5% or less (almost no effect)) | 1 (Herbicidal rate of 5% or more and less than 20%) | 0 (Herbicidal rate of 5% or less (almost no effect)) | 0 (Herbicidal rate of 5% or less (almost no effect)) | 5 (Herbicidal rate of 90% or more (almost completely withered)) | 1 (Herbicidal rate of 5% or more and less than 20%) | 0 (Herbicidal rate of 5% or less (almost no effect)) | 3 (Herbicidal rate of 40% or more and less than 70%) | 5 (Herbicidal rate of 90% or more (almost completely withered)) | 4 (Herbicidal rate of 70% or more and less than 90%) | 0 (Herbicidal rate of 5% or less (almost no effect)) | 4 (Herbicidal rate of 70% or more and less than 90%) | 1 (Herbicidal rate of 5% or more and less than 20%) | 
CCCC(=O)Oc1c(C)nn(C)c(=O)c1-c1c(-c2ccccc2OCC)sc2cc(C)c(C)cc12 [5-095] | 0 (Herbicidal rate of 5% or less (almost no effect)) | 4 (Herbicidal rate of 70% or more and less than 90%) | 4 (Herbicidal rate of 70% or more and less than 90%) | 0 (Herbicidal rate of 5% or less (almost no effect)) | 5 (Herbicidal rate of 90% or more (almost completely withered)) | 0 (Herbicidal rate of 5% or less (almost no effect)) | 0 (Herbicidal rate of 5% or less (almost no effect)) | 4 (Herbicidal rate of 70% or more and less than 90%) | 3 (Herbicidal rate of 40% or more and less than 70%) | 0 (Herbicidal rate of 5% or less (almost no effect)) | 4 (Herbicidal rate of 70% or more and less than 90%) | 4 (Herbicidal rate of 70% or more and less than 90%) | 5 (Herbicidal rate of 90% or more (almost completely withered)) | 0 (Herbicidal rate of 5% or less (almost no effect)) | 4 (Herbicidal rate of 70% or more and less than 90%) | 3 (Herbicidal rate of 40% or more and less than 70%) | 
CCOc1cc(F)ccc1-c1sc2cc(C)c(C)cc2c1-c1c(O)c(C)nn(C)c1=O [5-103] | 1 (Herbicidal rate of 5% or more and less than 20%) | 3 (Herbicidal rate of 40% or more and less than 70%) | 4 (Herbicidal rate of 70% or more and less than 90%) | 1 (Herbicidal rate of 5% or more and less than 20%) | 5 (Herbicidal rate of 90% or more (almost completely withered)) | 2 (Herbicidal rate of 20% or more and less than 40%) | 0 (Herbicidal rate of 5% or less (almost no effect)) | 4 (Herbicidal rate of 70% or more and less than 90%) | 4 (Herbicidal rate of 70% or more and less than 90%) | 4 (Herbicidal rate of 70% or more and less than 90%) | 4 (Herbicidal rate of 70% or more and less than 90%) | 5 (Herbicidal rate of 90% or more (almost completely withered)) | 5 (Herbicidal rate of 90% or more (almost completely withered)) | 0 (Herbicidal rate of 5% or less (almost no effect)) | 4 (Herbicidal rate of 70% or more and less than 90%) | 3 (Herbicidal rate of 40% or more and less than 70%) | 
CCOc1ccc2c(-c3c(O)c(C)nn(C)c3=O)c(-c3ccccc3OC)sc2c1Cl [7-003] | 0 (Herbicidal rate of 5% or less (almost no effect)) | 3 (Herbicidal rate of 40% or more and less than 70%) | 3 (Herbicidal rate of 40% or more and less than 70%) | 0 (Herbicidal rate of 5% or less (almost no effect)) | 1 (Herbicidal rate of 5% or more and less than 20%) | 4 (Herbicidal rate of 70% or more and less than 90%) | 0 (Herbicidal rate of 5% or less (almost no effect)) | 4 (Herbicidal rate of 70% or more and less than 90%) | 5 (Herbicidal rate of 90% or more (almost completely withered)) | 0 (Herbicidal rate of 5% or less (almost no effect)) | 0 (Herbicidal rate of 5% or less (almost no effect)) |  | 5 (Herbicidal rate of 90% or more (almost completely withered)) | 0 (Herbicidal rate of 5% or less (almost no effect)) | 4 (Herbicidal rate of 70% or more and less than 90%) | 4 (Herbicidal rate of 70% or more and less than 90%) | 5 (Herbicidal rate of 90% or more (almost completely withered))
